Data from patent publication US12570684B2 (UNIVERSITY OF TENNESSEE RESEARCH FOUNDATION, priority 2020, dated 2026).

How the values were obtained:
DPAGT1 (Human) = biological target: T1, DPAGT1 (Human) (Homo sapiens, UniProt Q9H3H5); assay: DPAGT1 assay; type: biochemical
T1 construct: made in house; host or cells: Expi293 cells (suspension)
T1 sequence (Q9H3H5 1-408): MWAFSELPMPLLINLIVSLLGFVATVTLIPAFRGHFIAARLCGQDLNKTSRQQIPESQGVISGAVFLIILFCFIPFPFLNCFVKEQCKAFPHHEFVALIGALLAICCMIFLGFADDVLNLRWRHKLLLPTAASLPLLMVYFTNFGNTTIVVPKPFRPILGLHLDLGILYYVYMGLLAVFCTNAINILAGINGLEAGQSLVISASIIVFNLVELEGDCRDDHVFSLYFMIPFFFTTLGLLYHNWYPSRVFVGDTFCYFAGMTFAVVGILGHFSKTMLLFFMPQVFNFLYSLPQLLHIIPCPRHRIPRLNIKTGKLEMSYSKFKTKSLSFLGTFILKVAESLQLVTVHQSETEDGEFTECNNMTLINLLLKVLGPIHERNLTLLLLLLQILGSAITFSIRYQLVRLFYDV
Protocol: DPAGT1 expression and purification. DPAGT1 was expressed in suspended Expi293 cells for 36 h. The cells were lysed by drawing through a 26 g needle (10 times) and membrane protein was extracted using buffer containing 1% decyl f3-D-maltopyranoside detergent. DPAGT1 was purified using HA-agarose resin and a superdex 200 size exclusion column.

[1] = test system: Myocobacterium tuberculosis H37Rv, Mycobacterium avium 2285, Mycobacterium smegmatis (ATCC607); assay: Antimycobacterial activity (MIC); type: cell-based, Mycobacterium spp.; conditions: at 50 μg/mL
[2] = biological target: MraY (Hydrogenivirga sp.) (Hydrogenivirga sp. 128-5-R1-1, UniProt Z9Y2G8N0L0); assay: MraY assay; type: biochemical
Chain of MraY (Hydrogenivirga sp.) (Z9Y2G8N0L0 7-365 limits assumed): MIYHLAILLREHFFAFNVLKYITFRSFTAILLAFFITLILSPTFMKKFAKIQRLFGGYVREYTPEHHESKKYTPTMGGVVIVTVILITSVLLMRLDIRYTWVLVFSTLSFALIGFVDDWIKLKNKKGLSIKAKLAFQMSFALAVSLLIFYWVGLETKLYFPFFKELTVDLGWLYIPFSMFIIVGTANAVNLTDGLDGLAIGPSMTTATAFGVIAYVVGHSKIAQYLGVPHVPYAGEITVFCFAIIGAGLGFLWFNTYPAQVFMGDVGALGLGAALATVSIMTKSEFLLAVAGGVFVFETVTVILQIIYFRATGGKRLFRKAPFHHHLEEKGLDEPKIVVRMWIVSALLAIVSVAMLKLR
Protocol: Expression and purification of HyMraY. The gene mraY of Hydrogenivirga spp. 128-5-R1-1 was cloned with a N-terminal His6 tag into a pET22b vector. […] The proteins were purified using a nickel, cation exchange, and size exclusion chromatography.
MraY assay. MraY assay substrates, Park's nucleotide-N^ε-C6-dansylthiourea, neryl phosphate, were chemically synthesized according to the reported procedures.^7 Park's nucleotide-N^ε-C6-dansylthiourea (2 mM stock solution, 1.88 jiL), MgCl2 (0.5 M, 5 jiL), KCl (2 M, 5 jiL), Triton X-100 (0.5%, 5.63 jiL), Tris buffer (pH 8.0, 50 mM), neryl phosphate (0.1 M, 2.25 jiL), and inhibitor molecule (0-50 .ig/mL in Tris buffer) were placed in a 1.5 mL Eppendorf tube. […] (26° C.) and quenched with CHCl3 (100 jiL). […] The aqueous phase was assayed via reverse-phase HPLC.

PANC-1 = assay: MTT cytotoxicity assay; type: cell-based, human; conditions: Homo sapiens, PANC-1, 72 h
Protocol: (§1) Cell lines. The human primary PDAC cell lines PANC-1 (ATCC CRL 1469); Capan-2 (ATCC HTB-80) and metastatic PDAC cell lines Capan-1 (ATCC HTB-79), AsPC-1 (ATCC CRL-1682), L1210 (ATCC CCL-219), KB (ATCC CCL-17), HeLa, SiHa (ATCC HTB-35), HCT-116 (ATCC CCL-247), DLD-1 (ATCC CCL221), hTERT-HPNE (ATCC CRL-4023), Vero (ATCC CCL-81) were purchased from the ATCC. The cell lines were cultured and maintained in the media as recommended by the supplier. The cell lines were regularly tested for mycoplasma contamination and authenticated. In addition to ATCC cell lines, Dr. Glazer's lab generated patient-derived PDAC cell line, PD002. PD002 Cells were maintained and cultured in DMEM medium supplemented with 20% FBS and 100 IU/mL penicillin and incubated at 37° C. with 5% CO2.
(§2) MTT cytotoxicity assay. To study the effect of treatment with DPAGT1 inhibitors on the growth and proliferation of cells, a fixed number of cells (5×10^4 cells/well, 196 μL) were plated in a 96 well plate. Into each well 5 μL of drug concentration was added. After 72 h of incubation with drugs at 37° C., 5% CO2, 10 μL of MTT solution (5 mg/mL in PBS) was added and incubated another 3 h at 37° C., 5% CO2. The medium was removed, and DMSO (200 μL/well) was added. Viability was assessed on the basis of cellular conversion of MTT into a purple formazan product. The absorbance of the colored formazan product was measured at 570 nm by BioTek Synergy HT Spectrophotometer.

AsPC-1 = assay: MTT cytotoxicity assay; type: cell-based, human; conditions: Homo sapiens, ASPC1, 72 h
Protocol: as §1, §2

Capan-2 = assay: MTT cytotoxicity assay; type: cell-based, human; conditions: Homo sapiens, Capan-2, 72 h
Protocol: as §1, §2

cell lines in Table 2 = assay: MTT assays, summary over the cell lines in Table 2; type: cell-based; conditions: KB, SiHa, HCT-116, DLP-1, Capan-2, PANC-1, AsPC-1, PD002; MTT assays; read-out: IC50 range, growth inhibition of solid cancer cell lines
Protocol: as §1, §2

AglH (M. jannaschii) = biological target: T2, AglH (M. jannaschii) (Methanocaldococcus jannaschii, UniProt Q58513); assay: AglH assay
T2 sequence (Q58513 1-301): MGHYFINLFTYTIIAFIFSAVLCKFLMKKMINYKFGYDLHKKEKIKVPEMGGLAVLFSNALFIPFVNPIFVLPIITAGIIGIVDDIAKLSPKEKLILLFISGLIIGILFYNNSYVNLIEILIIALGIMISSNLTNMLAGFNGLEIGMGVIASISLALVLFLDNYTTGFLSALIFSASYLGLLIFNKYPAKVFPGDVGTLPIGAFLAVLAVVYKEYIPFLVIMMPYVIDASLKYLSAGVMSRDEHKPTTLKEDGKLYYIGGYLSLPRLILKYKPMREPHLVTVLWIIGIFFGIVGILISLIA

Vero = assay: MTT cytotoxicity assay; type: cell-based; conditions: for IC50: Chlorocebus sabaeus, Vero, MTT, 72 h
Protocol: as §1, §2

L1210 = assay: MTT cytotoxicity assay; type: cell-based
Protocol: as §1, §2

SiHa = assay: MTT cytotoxicity assay; type: cell-based; conditions: Homo sapiens, SiHa, 72 h
Protocol: as §1, §2

DLD-1 = assay: MTT cytotoxicity assay; type: cell-based; conditions: Homo sapiens, DLD-1, 72 h
Protocol: as §1, §2

PD002 = assay: MTT cytotoxicity assay; type: cell-based; conditions: PD002; MTT, 72 h
Protocol: as §1, §2

KB = assay: MTT cytotoxicity assay; type: cell-based; conditions: Homo sapiens, KB, 72 h
Protocol: as §1, §2

HPNE = assay: MTT cytotoxicity assay; type: cell-based; conditions: for IC50: HPNE, MTT, 72 h
Protocol: as §1, §2

HCT-116 = assay: MTT cytotoxicity assay; type: cell-based; conditions: Homo sapiens, HCT-116, 72 h
Protocol: as §1, §2

WecA (E. coli) = WecA (E. coli) (Escherichia coli, UniProt P0AC78); assay: WecA assay
Chain of WecA (E. coli) (P0AC78 whole entry): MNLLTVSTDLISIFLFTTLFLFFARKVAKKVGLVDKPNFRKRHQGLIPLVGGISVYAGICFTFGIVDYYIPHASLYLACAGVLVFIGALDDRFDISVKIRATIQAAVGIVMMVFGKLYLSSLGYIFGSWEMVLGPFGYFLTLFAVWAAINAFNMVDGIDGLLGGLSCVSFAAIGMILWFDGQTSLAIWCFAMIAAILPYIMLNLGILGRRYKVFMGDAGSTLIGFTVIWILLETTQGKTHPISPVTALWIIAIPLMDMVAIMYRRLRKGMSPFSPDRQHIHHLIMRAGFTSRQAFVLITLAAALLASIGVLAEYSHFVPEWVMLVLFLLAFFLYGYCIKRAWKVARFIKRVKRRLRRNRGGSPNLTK
Protocol: Preparation of membrane fraction P-60 containing WecA. E. coli B21 wecA strain were harvested by centrifugation (4,700 rpm) at 4° C. followed by washing with 0.9% saline solution (thrice). The washed cell pellets were washed with homogenization buffer (containing 50 mM K2HPO4, 5 mM MgCl2, 5 mM 1,4-dithio-DL-threitol, and 10% glycerol, pH=7.2) (thrice), and approximately 5 g of pellet (wet weight) was collected. The washed cell pellets were suspended in homogenization buffer and disrupted by probe sonication on ice (5 s on and 2 s off for 1 min, then cool down for 1.5 min., 5 cycles, cool down for 15 min, and then, 5 s on and 2 s off for 1 min., cool down for 1.5 min, 5 cycles). The resulting suspension was centrifuged at 4,700×g for 15 min. at 4° C. to remove unbroken cells. The lysate was centrifuged at 25,000×g for 20 min. at 4° C. The supernatant was subjected to ultracentrifugation at 60,000×g for 1 h at 4° C. The supernatant was discarded, and the membrane fraction containing WecA enzyme (P-60) was suspended in the Tris-HCl buffer (pH=7.5). Total protein concentrations were approximately 8 to 10 mg/mL. Aliquots were stored in Eppendorf tubes at −80° C.

MraY = conditions: background; cited from earlier work

| Compound | DPAGT1 inhibitory activity (in words) (DPAGT1 (Human)) | MraY inhibitory activity (in words) [2] | IC50 (PANC-1) | IC50 (AsPC-1) | IC50 (Capan-2) | AglH inhibitory activity (in words) (AglH (M. jannaschii)) | IC50 (Vero) | IC50 (SiHa) | IC50 (DLD-1) | IC50 (PD002) | IC50 (KB) | IC50 (HPNE) | IC50 (HCT-116) | WecA inhibitory activity (in words) (WecA (E. coli)) | also measured |
| --- | --- | --- | --- | --- | --- | --- | --- | --- | --- | --- | --- | --- | --- | --- | --- |
| CO[C@@H]1[C@H](O)[C@@H]([C@@H](O[C@H]2OC(C(=O)NCc3ccc(N4CCC(Oc5ccc(OC(F)(F)F)cc5)CC4)cc3)=C[C@H](O)[C@@H]2O)C(N)=O)O[C@H]1n1ccc(=O)[nH]c1=O | high nM range DPAGT1 inhibitors | did not display MraY inhibitory activity | 45 µM | 30 µM | 40 µM | very weak | > 50 µM | 25 µM | 35 µM | 50 µM | 35 µM | > 50 µM | 25 µM | very weak | growth inhibitory activity against Mycobacterium spp. [1]: did not show growth inhibitory activity; IC50 (cell lines in Table 2): 15 to 40 µM; antiproliferative activity against Vero (Vero; at 50 μM, normal kidney cell): did not show antiproliferative activity; antiproliferative activity against L1210 (L1210; at 50 μM): did not show antiproliferative activity; antiproliferative activity against HPNE (HPNE; at 50 μM, normal pancreatic ductal cell): did not show antiproliferative activity |
| CO[C@H]1[C@@H](O)[C@H](n2ccc(=O)[nH]c2=O)O[C@@H]1[C@@H](O[C@H]1OC(C(=O)N[C@H]2CCCCNC2=O)=C[C@H](O)[C@@H]1O)C(N)=O [Capuramycin] | does not display inhibitory activity | selective MraY inhibitor | > 50 µM | > 50 µM | > 50 µM | does not display inhibitory activity | > 50 µM | > 50 µM | > 50 µM | > 50 µM | > 50 µM | > 50 µM | > 50 µM | does not display inhibitory activity | IC50 (MraY): 0.15 µM; IC50 [2]: 0.13 µM; IC50 (AglH (M. jannaschii)): > 50 µM; IC50 (L1210; Mus musculus, L1210, MTT, 72 h): > 50 µM; IC50 (WecA (E. coli)): > 50 µM |
